Test results published in patent publication US9593122B2, “Substituted pyrazolylpyrazole derivative and use of same as herbicide” (KYOYU AGRI CO., LTD., priority 2013, dated 2017).

Key:
Assay type in all cases: in vivo
[1] = system: Echinochloa crus-galli; test: Paddy herbicidal activity test; settings: irrigated paddy pot, treated at 3.5 leaf stage of Echinochloa crus-galli, 30 days
Method: (§1) Rice paddy soil was filled into a 1/10000 are pot followed by the addition of suitable amounts of water and chemical fertilizer, kneading, seeding with Echinochloa crus-galli, Monochoria vaginalis and Scirpus juncoides and maintaining in an irrigated state at a water depth of 3 cm.
(§2) Wettable powder of Target Compound (I) shown in Table 1 prepared in compliance with the preparation examples were diluted with a suitable amount of water, rice plants in the 2.0 leaf stage were transplanted during 3.5 leaf stage of Echinochloa crus-galli, and treated by dropping in chemical in the prescribed amount per are using a pipette.
(§3) After treating for 30 days in a glass greenhouse at an average atmospheric temperature of 30° C., the herbicidal efficacy thereof was investigated.
(§4) Evaluation of herbicidal efficacy was carried out by comparing growth inhibition rate (%) with an untreated group, while evaluation of phytotoxicity was carried out by comparing growth inhibition rate (%) with the state of a complete eradication group, and were evaluated at 11 levels indicated below.

[2] = system: Monochoria vaginalis; test: Paddy herbicidal activity test; settings: irrigated paddy pot, 30 days
Method: as §1, §2, §3, §4

[3] = system: Scirpus juncoides; test: Paddy herbicidal activity test; settings: irrigated paddy pot, 30 days
Method: as §1, §2, §3, §4

[4] = system: Amaranthus retroflexus; test: Farming soil treatment test; settings: soil surface spray prior to weed growth, 30 days
Method: (§5) Field soil was filled into a 1/6000 are pot followed by seeding with Digitaria ciliaris, Chenopodium album and Amaranthus retroflexus and covering with soil.
(§6) Wettable powder of compounds of formula (I) shown in Table 1 prepared in compliance with the preparation examples were diluted with water to the prescribed amount of chemical and uniformly sprayed onto each soil surface layer using 10 liters of sprayed water per are prior to weed growth following seeding.
as §3
(§7) Evaluation of herbicidal efficacy is carried out in the same manner as the above-mentioned Test Example 1.

[5] = system: Chenopodium album; test: Farming soil treatment test; settings: soil surface spray prior to weed growth, 30 days
Method: as §5, §6, §3, §7

[6] = system: Digitaria ciliaris; test: Farming soil treatment test; settings: soil surface spray prior to weed growth, 30 days
Method: as §5, §6, §3, §7

[7] = system: Amaranthus retroflexus; test: Weed foliar treatment test; settings: foliar spray, 3 weeks
Method: (§8) Soil was filled into a 1/6000 are pot followed by seeding with Digitaria ciliaris, Chenopodium album and Amaranthus retroflexus, covering with soil, and cultivating in a glass greenhouse at an average atmospheric temperature of 25° C.
(§9) Wettable powder of Target Compound (I) shown in Table 1 prepared in compliance with the preparation examples were diluted with water to the prescribed amount of chemical and uniformly sprayed onto the weeds using 15 liters of sprayed water per are when Digitaria ciliaris had grown to the 1.0 to 2.0 leaf stage.
(§10) After treating for 3 weeks in a glass greenhouse at an average atmospheric temperature of 25° C., the herbicidal efficacy thereof was investigated.
(§11) Evaluation of herbicidal efficacy was carried out in the same manner as the above-mentioned Test Example 1.

[8] = system: Chenopodium album; test: Weed foliar treatment test; settings: foliar spray, 3 weeks
Method: as §8, §9, §10, §11

[9] = system: Digitaria ciliaris; test: Weed foliar treatment test; settings: foliar spray at 1.0 to 2.0 leaf stage of Digitaria ciliaris, 3 weeks
Method: as §8, §9, §10, §11

C=C(Cl)CNc1c([N+](=O)[O-])cnn1-c1nn2c(c1Cl)CCCC2 [Compound 30]
Echinochloa crus-galli herbicidal efficacy (growth inhibition level) ([1]; 1g a.i./10a): 9 (9: 90% to less than 100%) | Echinochloa crus-galli herbicidal efficacy (growth inhibition level) ([1]; 5g a.i./10a): 10 (10: 100%) | Monochoria vaginalis herbicidal efficacy (growth inhibition level) ([2]; 1g a.i./10a): 9 (9: 90% to less than 100%) | Monochoria vaginalis herbicidal efficacy (growth inhibition level) ([2]; 5g a.i./10a): 10 (10: 100%) | Scirpus juncoides herbicidal efficacy (growth inhibition level) ([3]; 1g a.i./10a): 8 (8: 80% to less than 90%) | Scirpus juncoides herbicidal efficacy (growth inhibition level) ([3]; 5g a.i./10a): 10 (10: 100%) | Amaranthus retroflexus herbicidal efficacy (growth inhibition level) ([4]; 5g a.i./10a): 10 (10: 100%) | Amaranthus retroflexus herbicidal efficacy (growth inhibition level) ([4]; 10g a.i./10a): 10 (10: 100%) | Chenopodium album herbicidal efficacy (growth inhibition level) ([5]; 5g a.i./10a): 10 (10: 100%) | Chenopodium album herbicidal efficacy (growth inhibition level) ([5]; 10g a.i./10a): 10 (10: 100%) | Digitaria ciliaris herbicidal efficacy (growth inhibition level) ([6]; 5g a.i./10a): 10 (10: 100%) | Digitaria ciliaris herbicidal efficacy (growth inhibition level) ([6]; 10g a.i./10a): 10 (10: 100%) | Amaranthus retroflexus herbicidal efficacy (growth inhibition level) ([7]; 5g a.i./10a): 10 (10: 100%) | Amaranthus retroflexus herbicidal efficacy (growth inhibition level) ([7]; 10g a.i./10a): 10 (10: 100%) | Chenopodium album herbicidal efficacy (growth inhibition level) ([8]; 5g a.i./10a): 10 (10: 100%) | Chenopodium album herbicidal efficacy (growth inhibition level) ([8]; 10g a.i./10a): 10 (10: 100%) | Digitaria ciliaris herbicidal efficacy (growth inhibition level) ([9]; 5g a.i./10a): 10 (10: 100%) | Digitaria ciliaris herbicidal efficacy (growth inhibition level) ([9]; 10g a.i./10a): 10 (10: 100%)

O=[N+]([O-])c1cnn(-c2nn3c(c2Cl)CCCC3)c1NC/C=C\Cl [Compound 32]
Echinochloa crus-galli herbicidal efficacy (growth inhibition level) ([1]; 1g a.i./10a): 8 (8: 80% to less than 90%) | Echinochloa crus-galli herbicidal efficacy (growth inhibition level) ([1]; 5g a.i./10a): 9 (9: 90% to less than 100%) | Monochoria vaginalis herbicidal efficacy (growth inhibition level) ([2]; 1g a.i./10a): 9 (9: 90% to less than 100%) | Monochoria vaginalis herbicidal efficacy (growth inhibition level) ([2]; 5g a.i./10a): 10 (10: 100%) | Scirpus juncoides herbicidal efficacy (growth inhibition level) ([3]; 1g a.i./10a): 8 (8: 80% to less than 90%) | Scirpus juncoides herbicidal efficacy (growth inhibition level) ([3]; 5g a.i./10a): 10 (10: 100%) | Amaranthus retroflexus herbicidal efficacy (growth inhibition level) ([4]; 5g a.i./10a): 10 (10: 100%) | Amaranthus retroflexus herbicidal efficacy (growth inhibition level) ([4]; 10g a.i./10a): 10 (10: 100%) | Chenopodium album herbicidal efficacy (growth inhibition level) ([5]; 5g a.i./10a): 10 (10: 100%) | Digitaria ciliaris herbicidal efficacy (growth inhibition level) ([6]; 5g a.i./10a): 10 (10: 100%) | Digitaria ciliaris herbicidal efficacy (growth inhibition level) ([6]; 10g a.i./10a): 10 (10: 100%) | Amaranthus retroflexus herbicidal efficacy (growth inhibition level) ([7]; 5g a.i./10a): 10 (10: 100%) | Amaranthus retroflexus herbicidal efficacy (growth inhibition level) ([7]; 10g a.i./10a): 10 (10: 100%) | Chenopodium album herbicidal efficacy (growth inhibition level) ([8]; 5g a.i./10a): 10 (10: 100%) | Chenopodium album herbicidal efficacy (growth inhibition level) ([8]; 10g a.i./10a): 10 (10: 100%) | Digitaria ciliaris herbicidal efficacy (growth inhibition level) ([9]; 5g a.i./10a): 10 (10: 100%) | Digitaria ciliaris herbicidal efficacy (growth inhibition level) ([9]; 10g a.i./10a): 10 (10: 100%)

N#Cc1cnn(-c2nn3c(c2Br)CCCC3)c1NCC(Cl)=CCl (mixture of isomers) [Compound 46]
Echinochloa crus-galli herbicidal efficacy (growth inhibition level) ([1]; 1g a.i./10a): 7 (7: 70% to less than 80%) | Echinochloa crus-galli herbicidal efficacy (growth inhibition level) ([1]; 5g a.i./10a): 8 (8: 80% to less than 90%) | Monochoria vaginalis herbicidal efficacy (growth inhibition level) ([2]; 1g a.i./10a): 7 (7: 70% to less than 80%) | Monochoria vaginalis herbicidal efficacy (growth inhibition level) ([2]; 5g a.i./10a): 8 (8: 80% to less than 90%) | Scirpus juncoides herbicidal efficacy (growth inhibition level) ([3]; 1g a.i./10a): 7 (7: 70% to less than 80%) | Scirpus juncoides herbicidal efficacy (growth inhibition level) ([3]; 5g a.i./10a): 8 (8: 80% to less than 90%)

C=CCN(C(=O)C(F)(F)F)c1c(C#N)cnn1-c1nn2c(c1Cl)CCCC2 [Compound 17]
Echinochloa crus-galli herbicidal efficacy (growth inhibition level) ([1]; 1g a.i./10a): 9 (9: 90% to less than 100%) | Echinochloa crus-galli herbicidal efficacy (growth inhibition level) ([1]; 5g a.i./10a): 10 (10: 100%) | Monochoria vaginalis herbicidal efficacy (growth inhibition level) ([2]; 1g a.i./10a): 8 (8: 80% to less than 90%) | Monochoria vaginalis herbicidal efficacy (growth inhibition level) ([2]; 5g a.i./10a): 8 (8: 80% to less than 90%) | Scirpus juncoides herbicidal efficacy (growth inhibition level) ([3]; 1g a.i./10a): 9 (9: 90% to less than 100%) | Scirpus juncoides herbicidal efficacy (growth inhibition level) ([3]; 5g a.i./10a): 9 (9: 90% to less than 100%)

C=CCN(C(=O)C(F)(F)F)c1c([N+](=O)[O-])cnn1-c1nn2c(c1Cl)CCCC2 [Compound 36]
Echinochloa crus-galli herbicidal efficacy (growth inhibition level) ([1]; 1g a.i./10a): 9 (9: 90% to less than 100%) | Echinochloa crus-galli herbicidal efficacy (growth inhibition level) ([1]; 5g a.i./10a): 10 (10: 100%) | Monochoria vaginalis herbicidal efficacy (growth inhibition level) ([2]; 1g a.i./10a): 8 (8: 80% to less than 90%) | Monochoria vaginalis herbicidal efficacy (growth inhibition level) ([2]; 5g a.i./10a): 9 (9: 90% to less than 100%) | Scirpus juncoides herbicidal efficacy (growth inhibition level) ([3]; 1g a.i./10a): 8 (8: 80% to less than 90%) | Scirpus juncoides herbicidal efficacy (growth inhibition level) ([3]; 5g a.i./10a): 9 (9: 90% to less than 100%)

O=C(N(C/C=C\Cl)c1c([N+](=O)[O-])cnn1-c1nn2c(c1Cl)CCCC2)C(F)(F)F [Compound 39]
Echinochloa crus-galli herbicidal efficacy (growth inhibition level) ([1]; 1g a.i./10a): 9 (9: 90% to less than 100%) | Echinochloa crus-galli herbicidal efficacy (growth inhibition level) ([1]; 5g a.i./10a): 10 (10: 100%) | Monochoria vaginalis herbicidal efficacy (growth inhibition level) ([2]; 1g a.i./10a): 7 (7: 70% to less than 80%) | Monochoria vaginalis herbicidal efficacy (growth inhibition level) ([2]; 5g a.i./10a): 8 (8: 80% to less than 90%) | Scirpus juncoides herbicidal efficacy (growth inhibition level) ([3]; 1g a.i./10a): 8 (8: 80% to less than 90%) | Scirpus juncoides herbicidal efficacy (growth inhibition level) ([3]; 5g a.i./10a): 8 (8: 80% to less than 90%)

C=C(Cl)CN(C(=O)C(F)(F)F)c1c(C#N)cnn1-c1nn2c(c1Br)CCCC2 [Compound 51]
Echinochloa crus-galli herbicidal efficacy (growth inhibition level) ([1]; 1g a.i./10a): 9 (9: 90% to less than 100%) | Echinochloa crus-galli herbicidal efficacy (growth inhibition level) ([1]; 5g a.i./10a): 9 (9: 90% to less than 100%) | Monochoria vaginalis herbicidal efficacy (growth inhibition level) ([2]; 1g a.i./10a): 8 (8: 80% to less than 90%) | Monochoria vaginalis herbicidal efficacy (growth inhibition level) ([2]; 5g a.i./10a): 8 (8: 80% to less than 90%) | Scirpus juncoides herbicidal efficacy (growth inhibition level) ([3]; 1g a.i./10a): 8 (8: 80% to less than 90%) | Scirpus juncoides herbicidal efficacy (growth inhibition level) ([3]; 5g a.i./10a): 8 (8: 80% to less than 90%)

C=CCCNc1c(C#N)cnn1-c1nn2c(c1Br)CCCC2 [Compound 42]
Echinochloa crus-galli herbicidal efficacy (growth inhibition level) ([1]; 1g a.i./10a): 8 (8: 80% to less than 90%) | Echinochloa crus-galli herbicidal efficacy (growth inhibition level) ([1]; 5g a.i./10a): 9 (9: 90% to less than 100%) | Monochoria vaginalis herbicidal efficacy (growth inhibition level) ([2]; 1g a.i./10a): 7 (7: 70% to less than 80%) | Monochoria vaginalis herbicidal efficacy (growth inhibition level) ([2]; 5g a.i./10a): 8 (8: 80% to less than 90%) | Scirpus juncoides herbicidal efficacy (growth inhibition level) ([3]; 1g a.i./10a): 8 (8: 80% to less than 90%) | Scirpus juncoides herbicidal efficacy (growth inhibition level) ([3]; 5g a.i./10a): 8 (8: 80% to less than 90%)

CC=CCNc1c(C#N)cnn1-c1nn2c(c1Br)CCCC2 (mixture of isomers) [Compound 47]
Echinochloa crus-galli herbicidal efficacy (growth inhibition level) ([1]; 1g a.i./10a): 9 (9: 90% to less than 100%) | Echinochloa crus-galli herbicidal efficacy (growth inhibition level) ([1]; 5g a.i./10a): 10 (10: 100%) | Monochoria vaginalis herbicidal efficacy (growth inhibition level) ([2]; 1g a.i./10a): 8 (8: 80% to less than 90%) | Monochoria vaginalis herbicidal efficacy (growth inhibition level) ([2]; 5g a.i./10a): 9 (9: 90% to less than 100%) | Scirpus juncoides herbicidal efficacy (growth inhibition level) ([3]; 1g a.i./10a): 7 (7: 70% to less than 80%) | Scirpus juncoides herbicidal efficacy (growth inhibition level) ([3]; 5g a.i./10a): 8 (8: 80% to less than 90%)

C=C(C)CN(C(=O)C(F)(F)F)c1c(C#N)cnn1-c1nn2c(c1Cl)CCCC2 [Compound 19]
Echinochloa crus-galli herbicidal efficacy (growth inhibition level) ([1]; 1g a.i./10a): 9 (9: 90% to less than 100%) | Echinochloa crus-galli herbicidal efficacy (growth inhibition level) ([1]; 5g a.i./10a): 10 (10: 100%) | Monochoria vaginalis herbicidal efficacy (growth inhibition level) ([2]; 1g a.i./10a): 9 (9: 90% to less than 100%) | Monochoria vaginalis herbicidal efficacy (growth inhibition level) ([2]; 5g a.i./10a): 9 (9: 90% to less than 100%) | Scirpus juncoides herbicidal efficacy (growth inhibition level) ([3]; 1g a.i./10a): 7 (7: 70% to less than 80%) | Scirpus juncoides herbicidal efficacy (growth inhibition level) ([3]; 5g a.i./10a): 8 (8: 80% to less than 90%)
